Counter-ions that a name gives are not always drawn.
Target: RIPK1 (recombinant GST-RIPK1 kinase domain, residues 1-327) (Homo sapiens (Human), UniProt Q13546)
Assay: RIPK1-ADP-Glo Enzymatic Assay
Format: biochemical
Conditions: ADP-Glo; 25 nM GST-RIPK1, 300 μM ATP; assay lower limit ~25 nM; read-out: RIPK1 V0 Ec50
Procedure, shortened: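 Using dephosphorylated MBP (3 μM) as substrate and 300 μM ATP, 25 nM baculovirus-produced enzyme was reacted for 150 min after a 30-min compound pre-incubation. Luminescent ADP detection followed; lower confidence limit ~25 nM.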

Sequence of RIPK1 (recombinant GST-RIPK1 kinase domain, residues 1-327) (Q13546 1-327): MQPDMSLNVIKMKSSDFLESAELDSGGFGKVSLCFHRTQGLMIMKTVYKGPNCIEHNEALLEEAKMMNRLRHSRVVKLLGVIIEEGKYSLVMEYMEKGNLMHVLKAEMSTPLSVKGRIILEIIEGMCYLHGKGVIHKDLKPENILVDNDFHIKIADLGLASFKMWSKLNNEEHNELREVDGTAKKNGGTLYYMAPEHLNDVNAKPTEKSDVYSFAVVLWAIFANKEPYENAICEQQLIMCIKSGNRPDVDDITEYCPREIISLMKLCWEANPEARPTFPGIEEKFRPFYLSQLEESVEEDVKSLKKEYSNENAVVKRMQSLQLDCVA

Row | SMILES | EC50 [nM]
1 | Cc1nc(N2CCC3(CC2)O[C@@H]2CC[C@@H](c4ccccc4)N2C3=O)sc1C [Example 11.32, (5′S,7a′R)-1-(4,5-dimethyl-1,3-thiazol-2-yl)-5′-phenyltetrahydro-3′H-spiro[piperidine-4,2′-pyrrolo[2,1-b][1,3]oxazol]-3′-one] | 319
2 | O=C1N2[C@@H](CC[C@H]2c2ccccc2)OC12CCN(c1cccc3ncnn13)CC2 [Example 13.1, (5′S,7a′R)-1-([1,2,4]Triazolo[1,5-a]pyridin-5-yl)-5′-phenyltetrahydro-3′H-spiro[piperidine-4,2′-pyrrolo[2,1-b]oxazol]-3′-one, TFA] | 26.8
3 | O=C1N2[C@@H](CC[C@H]2c2ccccc2F)OC12CN(S(=O)(=O)c1cccc(F)c1)C2 [Example 8.6, (5′S,7a′R)-5′-(2-fluorophenyl)-1-((3-fluorophenyl)sulfonyl) tetrahydro-3′H-spiro[azetidine-3,2′-pyrrolo[2,1-b]oxazol]-3′-one] | 421
4 | O=C1N2[C@@H](CC[C@H]2c2ccccc2)OC12CCN(c1cc(C(F)(F)F)ncn1)CC2 [Example 4.33, (5′S,7a′R)-5′-phenyl-1-[6-(trifluoromethyl)pyrimidin-4-yl]tetrahydro-3′H-spiro[piperidine-4,2′-pyrrolo[2,1-b] [1,3]oxazol]-3′-one] | 50
5 | O=C1N2[C@@H](CC[C@H]2c2ccccc2)OC12CCN(c1cc(-c3ccccc3)ncn1)CC2 [Example 4.32, (5′S,7a′R)-5′-phenyl-1-(6-phenylpyrimidin-4-yl)tetrahydro-3′H-spiro[piperidine-4,2′-pyrrolo[2,1-b] [1,3]oxazol]-3′-one] | < 25
6 | N#Cc1cc(N2CCC3(CC2)O[C@@H]2CC[C@@H](c4ccccc4)N2C3=O)ccn1 [Example 4.31, 4-[(5′S,7a′R)-3′-oxo-5′-phenyltetrahydro-1H,3′H-spiro[piperidine-4,2′-pyrrolo[2,1-b] [1,3]oxazol]-1-yl]pyridine-2-carbonitrile] | < 25
7 | N#Cc1ccc(N2CCC3(O[C@@H]4CC[C@@H](c5ccccc5)N4C3=O)C(F)C2)n2ncnc12 (stereo partly drawn) [Example 4.257, 5-[(5′S,7a′R)-3-fluoro-3′-oxo-5′-phenyltetrahydro-1H,3′H-spiro[piperidine-4,2′-pyrrolo[2,1-b] [1,3]oxazol]-1-yl][1,2,4]triazolo[1,5-a] pyridine-8-carbonitrile] | < 25
8 | NC(=O)c1ccc(N2CCC3(CC2)O[C@@H]2CC[C@@H](c4ccccc4)N2C3=O)n2nccc12 [Example 4.155, 7-[(5′S,7a′R)-3′-oxo-5′-phenyltetrahydro-1H,3′H-spiro[piperidine-4,2′-pyrrolo[2,1-b] [1,3]oxazol]-1-yl]pyrazolo[1,5-a] pyridine-4-carboxamide] | < 25
9 | O=C1N2[C@@H](CC[C@H]2C2CCCCC2)OC12CCN(c1ccnc3c(F)cnn13)CC2 [Example 4.87, (5′S,7a′R)-5′-cyclohexyl-1-(3-fluoropyrazolo [1,5-a]pyrimidin-7-yl)tetrahydro-3′H-spiro[piperidine-4,2′-pyrrolo[2,1-b]oxazol]-3′-one, TFA salt] | < 25
10 | O=C(c1cc(F)ccn1)N1CCC2(CC1)O[C@@H]1CC[C@@H](c3cc(F)cc(F)c3)N1C2=O [Example 6.92, (5′S,7a′R)-5′-(3,5-difluorophenyl)-1-(4-fluoropyridine-2-carbonyl)tetrahydro-3′H-spiro[piperidine-4,2′-pyrrolo[2,1-b] [1,3]oxazol]-3′-one] | 40.6
11 | O=C(c1cc(F)ccc1F)N1CC2(C1)O[C@@H]1CC[C@@H](c3cc(F)cc(F)c3)N1C2=O [Example 1.20, (5′S,7a′R)-1-(2,5-difluorobenzoyl)-5′-(3,5-difluorophenyl)tetrahydro-3′H-spiro[azetidine-3,2′-pyrrolo[2,1-b]oxazol]-3′-one] | 41.7
12 | O=C1N2[C@@H](CC[C@H]2c2ccccc2F)OC12CN(c1cc(-c3ccccc3)no1)C2 [Example 11.35, (5′S,7a′R)-5′-(2-fluorophenyl)-1-(3-phenyl-1,2-oxazol-5-yl)tetrahydro-3′H-spiro[azetidine-3,2′-pyrrolo[2,1-b][1,3]oxazol]-3′-one] | 34.5
13 | N#Cc1ccc(C(=O)N2CCC3(CC2)O[C@@H]2CC[C@@H](c4cc(F)cc(F)c4)N2C3=O)cc1F [Example 5.19, 4-((5′S,7a′R)-5′-(3,5-difluorophenyl)-3′-oxo-tetrahydro-3′H-spiro [piperidine-4,2′-pyrrolo-[2,1-b]oxazole]-1-carbon-yl)-2-fluorobenzonitrile] | 333
14 | Cc1nnc(N2CC3(C2)O[C@@H]2CC[C@@H](c4ccccc4F)N2C3=O)o1 [Example 4.273, (5′S,7a′R)-5′-(2-fluorophenyl)-1-(5-methyl-1,3,4-oxadiazol-2-yl)tetrahydro-3′H-spiro[azetidine-3,2′-pyrrolo[2,1-b] [1,3]oxazol]-3′-one] | 566
15 | O=C1N2[C@@H](CC[C@H]2c2ccccc2F)OC12CCN(c1ccnc(-c3cnn(C(F)F)c3)c1)CC2 [Example 10.4, (5′S,7a′R)-1-{2-[1-(difluoromethyl)-1H-pyrazol-4-yl]pyridin-4-yl}-5′-(2-fluorophenyl)tetrahydro-3′H-spiro[piperidine-4,2′-pyrrolo[2,1-b][1,3]oxazol]-3′-one] | < 25
16 | Cc1cc(C#N)cnc1N1CCC2(CC1)O[C@@H]1CC[C@@H](c3cc(F)cc(F)c3)N1C2=O [Example 4.47, 6-[(5′S,7a′R)-5′-(3,5-difluorophenyl)-3′-oxotetrahydro-1H,3′H-spiro[piperidine-4,2′-pyrrolo[2,1-b] [1,3]oxazol]-1-yl]-5-methylpyridine-3-carbonitrile] | < 25
17 | O=C1N2[C@H](CC13CCN(c1ccnc4c(F)cnn14)CC3)OC[C@H]2c1ccccc1 [Example 4.120, (3′R,7a′S)-1-(3-fluoropyrazolo[1,5-a]pyrimidin-7-yl)-3′-phenyltetrahydro-5′H-spiro[piperidine-4,6′-pyrrolo[2,1-b] [1,3]oxazol]-5′-one] | < 25
18 | COc1cccc(C(=O)N2CCC3(CC2)O[C@@H]2CC[C@@H](c4ccccc4)N2C3=O)c1 [Example 6.155, (5′S,7a′R)-1-(3-methoxybenzene-1-carbonyl)-5′-phenyl-tetrahydro-3′H-spiro [piperidine-4,2′-pyrrolo[2,1-b][1,3]oxazol]-3′-one] | < 25
19 | CC1CN(C(=O)c2ccccc2)CCC12O[C@@H]1CC[C@@H](c3cc(F)cc(F)c3)N1C2=O (single isomer, unassigned) [Example 2.4, (3[R or S],4[R or S], 5′S,7a′R)-1-benzoyl-5′-(3,5-difluorophenyl)-3-methyltetrahydro-3′H-spiro[piperidine-4,2′-pyrrolo[2,1-b]oxazol]-3′-one] | < 25
20 | N#Cc1cnc(N2CCC3(CC2)O[C@@H]2CC[C@@H](c4cccc(F)c4)N2C3=O)c(F)c1 [Example 4.50, 5-fluoro-6-[(5′S,7a′R)-5′-(3-fluorophenyl)-3′-oxotetrahydro-1H,3′H-spiro[piperidine-4,2′-pyrrolo[2,1-b] [1,3]oxazol]-1-yl]pyridine-3-carbonitrile] | 30.7
21 | O=C1N2[C@@H](CC[C@H]2c2cc(F)cc(F)c2)OC12CCN(c1ncnc3ccnn13)CC2 [Example 4.128, (5′S,7a′R)-5′-(3,5-difluorophenyl)-1-(pyrazolo[1,5-a] [1,3,5]triazin-4-yl)tetrahydro-3′H-spiro[piperidine-4,2′-pyrrolo[2,1-b] [1,3]oxazol]-3′-one] | < 25
22 | O=C1N2[C@@H](CC[C@H]2c2ccccc2)OC12CCN(c1cnc(-c3ncco3)cn1)CC2 [Example 21.14, (5′S,7a′R)-1-[5-(1,3-oxazol-2-yl)pyrazin-2-yl]-5′-phenyltetrahydro-3′H-spiro[piperidine-4,2′-pyrrolo[2,1-b][1,3]oxazol]-3′-one] | 57.8
23 | O=C1N2[C@@H](CC[C@H]2c2cccc(F)c2)OC12CCN(c1ccnc3c(F)cnn13)CC2 [Example 4.129, (5′S,7a′R)-5′-(3-fluorophenyl)-1-(3-fluoropyrazolo[1,5-a]pyrimidin-7-yl)tetrahydro-3′H-spiro[piperidine-4,2′-pyrrolo[2,1-b] [1,3]oxazol]-3′-one] | < 25
24 | CC1CC2(CCN1C(=O)c1ccccc1)O[C@@H]1CC[C@@H](c3cc(F)cc(F)c3)N1C2=O (stereo partly drawn) [Example 6.106, (4R,5′S,7a′R)-1-(benzenecarbonyl)-5′-(3,5-difluorophenyl)-2-methyltetrahydro-3′H-spiro[piperidine-4,2′-pyrrolo[2,1-b] [1,3]oxazol]-3′-one] | 202
25 | Cc1cc(N2CCC3(CC2)O[C@@H]2CC[C@@H](c4ccccc4)N2C3=O)nc(C#N)n1 [Example 4.2, 4-methyl-6-[(5′S,7a′R)-3′-oxo-5′-phenyltetrahydro-1H,3′H-spiro[piperidine-4,2′-pyrrolo[2,1-b] [1,3]oxazol]-1-yl]pyrimidine-2-carbonitrile] | < 25
26 | N#Cc1cc(N2CCC3(O[C@@H]4CC[C@@H](c5ccccc5)N4C3=O)C(F)C2)ncn1 (single isomer, unassigned) [Example 4.94, 6-((3[R or S],4[S or R], 5′S,7a′R)-3-fluoro-3′-oxo-5′-phenyltetrahydro-3′H-spiro[piperidine-4,2′-pyrrolo[2,1-b]oxazol]-1-yl)pyrimidine-4-carbonitrile] | 154
27 | O=C1N2[C@@H](CC[C@H]2c2ccccc2)OC12CCN(c1ccc(-c3nnc(C(F)(F)F)o3)cn1)CC2 [Example 4.165, (5′S,7a′R)-5′-phenyl-1-{5-[5-(trifluoromethyl)-1,3,4-oxadiazol-2-yl]pyridin-2-yl}tetrahydro-3′H-spiro[piperidine-4,2′-pyrrolo[2,1-b] [1,3]oxazol]-3′-one] | 144
28 | O=C1N2[C@@H](CC[C@H]2c2cc(F)cc(F)c2)OC12CCN(c1ccnc3ccnn13)CC2 [Example 4.6, (5′S,7a′R)-5′-(3,5-difluorophenyl)-1-(pyrazolo[1,5-a]pyrimidin-7-yl)tetrahydro-3′H-spiro[piperidine-4,2′-pyrrolo[2,1-b] [1,3]oxazol]-3′-one] | < 25

Reference: patent US12180226B2, “Spirotricycle RIPK1 inhibitors and methods of uses thereof” (Merck Sharp & Dohme LLC, priority 2021, dated 2024)
